Assay results from patent publication US20260166160A1, “PROTACS TARGETING VIRAL ENZYMES FOR PRECISE TREATMENT OF COVID-19” (Ohio University, priority 2022, published 2026).
Where two headings read alike, the source gives them in different places.

What was measured:
[1] = target: Mpro (Severe acute respiratory syndrome coronavirus 2, UniProt P0DTD1); experiment: Mpro degradation in HEK293 cells stably expressing wild-type Mpro (tetracycline-inducible), Western Blot with anti-T7 antibodies; format: cell-based, SARS-CoV-2; conditions: for remaining activity at 0.5 µM: HEK293, 24 h, read-out: Mpro (relative concentration)
Description: To evaluate the degradation activity of MP-C-4N (initially, and additional PROTAC compounds later), a Mpro expression system was constructed in mammalian cells. A cell line stably expressing wild-type Mpro was constructed. According to the RNA sequence of wild-type Mpro, the corresponding DNA sequence was synthesized and codon-optimzied to be suitable for expression in HEK293 cells. After investigating the influence of different expression vectors and promoters on the protein expression level, pCW57.1-TetOn was selected as the expression vector, which contains a tetracycline-inducible promoter, and the target protein expression can be started or closed by controlling the content of tetracycline. With this cell line, the process of expressing MPro during virus infection in human cells was successfully simulated. This model was used to successfully test the degradation ability of candidate compounds on the target protein. Specifically, the cells were treated with doxycycline (1 μg/mL) for 12 h. After removing doxycycline, the cells were treated with PROTACs with indicated concentrations for 24 h and then harvested. The expression of Mpro was determined by Western Blot (WB) analysis using anti-T7 antibodies.

[2] = test system: human coronavirus OC43 (HCoV-OC43); experiment: Anti-virus activity, HCoV-OC43 plaque formation in RD cells
[3] = compound at 500 nM, control 100%, Tables 1-3
[4] = Betacoronavirus 1, OC43, RD, RD cells infected with HCoV-OC43, 33° C., 4-5 days, plaque areas, Tables 7-11

Row | SMILES | remaining activity at 0.5 µM [1] [%] | EC50 ([2]; Betacoronavirus 1, OC43, RD) [nM] | other results
1 | Cc1ccc(NC(=O)c2ccc(CN3CCN(C(=O)CCOCCOCCOCCOCCNc4cccc5c4C(=O)N(C4CCC(=O)NC4=O)C5=O)CC3)cc2)cc1Nc1nc(-c2cccnc2)cs1 (centres unmarked) [MP-21] | 52 | 480 | –
2 | O=C(CCOCCOCCOCCNc1cccc2c1C(=O)N(C1CCC(=O)NC1=O)C2=O)NCCn1cc(NC(=O)c2c(Cl)cccc2Cl)c(C(=O)NC2CCNCC2)n1 (centres unmarked) [MP-30] | 52 | 435 | –
3 | Cc1ccc(NC(=O)c2ccc(CN3CCN(C(=O)CCOCCOCCOCCOCCOCCNc4cccc5c4C(=O)N(C4CCC(=O)NC4=O)C5=O)CC3)cc2)cc1Nc1nc(-c2cccnc2)cs1 (centres unmarked) [MP-22] | 75 | 615 | –
4 | O=C(CCOCCNc1cccc2c1C(=O)N(C1CCC(=O)NC1=O)C2=O)NCCn1cc(NC(=O)c2c(Cl)cccc2Cl)c(C(=O)NC2CCNCC2)n1 (centres unmarked) [MP-28, 4-(2,6-dichlorobenzamido)-1-(2-(3-(2-((2-(2,6-dioxopiperidin-3-yl)-1,3-dioxoisoindolin-4-yl)amino)ethoxy)propanamido)ethyl)-N-(piperidin-4-yl)-1H-pyrazole-3-carboxamide] | 33 | 315 | –
5 | Cc1ccc(NC(=O)c2ccc(CN3CCN(C(=O)CCOCCOCCOCCNc4cccc5c4C(=O)N(C4CCC(=O)NC4=O)C5=O)CC3)cc2)cc1Nc1nc(-c2cccnc2)cs1 (centres unmarked) [MP-20] | 28 | 310 | –
6 | CC(C)C[C@H](NC(=O)[C@@H](NC(=O)[C@H](C)NC(=O)CCOCCNc1cccc2c1C(=O)N(C1CCC(=O)NC1=O)C2=O)C(C)C)C(=O)N[C@H](C#N)C[C@@H]1CCNC1=O (some centres unmarked) [MP-38] | – | – | remaining activity at 0.5 µM [1, 3]: 50%; EC50 [2, 4]: 380 nM
7 | O=C(CCOCCOCCOCCOCCOCCNc1cccc2c1C(=O)N(C1CCC(=O)NC1=O)C2=O)NCCn1cc(NC(=O)c2c(Cl)cccc2Cl)c(C(=O)NC2CCNCC2)n1 (centres unmarked) [MP-32] | 80 | 830 | –
8 | Cc1ccc(NC(=O)c2ccc(CN3CCN(C(=O)CCOCCNc4cccc5c4C(=O)N(C4CCC(=O)NC4=O)C5=O)CC3)cc2)cc1Nc1nc(-c2cccnc2)cs1 (centres unmarked) [MP-18, 4-((4-(3-(2-((2-(2,6-dioxopiperidin-3-yl)-1,3-dioxoisoindolin-4-yl)amino)ethoxy)propanoyl)piperazin-1-yl)methyl)-N-(4-methyl-3-((4-(pyridin-3-yl)thiazol-2-yl)amino)phenyl)benzamide] | 45 | 336 | –
9 | O=C(CCOCCOCCOCCOCCNc1cccc2c1C(=O)N(C1CCC(=O)NC1=O)C2=O)NCCn1cc(NC(=O)c2c(Cl)cccc2Cl)c(C(=O)NC2CCNCC2)n1 (centres unmarked) [MP-31] | 65 | 520 | –
10 | CC(C)C[C@H](NC(=O)[C@@H](NC(=O)[C@H](C)NC(=O)CCOCCOCCNc1cccc2c1C(=O)N(C1CCC(=O)NC1=O)C2=O)C(C)C)C(=O)N[C@H](C#N)C[C@@H]1CCNC1=O (some centres unmarked) [MP-39] | – | – | remaining activity at 0.5 µM [1, 3]: 40%; EC50 [2, 4]: 235 nM
11 | CC(C)C[C@H](NC(=O)[C@@H](NC(=O)[C@H](C)NC(=O)CCOCCOCCOCCNc1cccc2c1C(=O)N(C1CCC(=O)NC1=O)C2=O)C(C)C)C(=O)N[C@H](C#N)C[C@@H]1CCNC1=O (some centres unmarked) [MP-41] | – | – | remaining activity at 0.5 µM [1, 3]: 45%; EC50 [2, 4]: 325 nM
12 | Cc1ccc(NC(=O)c2ccc(CN3CCN(C(=O)CCOCCOCCNc4cccc5c4C(=O)N(C4CCC(=O)NC4=O)C5=O)CC3)cc2)cc1Nc1nc(-c2cccnc2)cs1 (centres unmarked) [MP-19] | 32 | 318 | –
13 | O=C(CCOCCOCCNc1cccc2c1C(=O)N(C1CCC(=O)NC1=O)C2=O)NCCn1cc(NC(=O)c2c(Cl)cccc2Cl)c(C(=O)NC2CCNCC2)n1 (centres unmarked) [MP-29] | 40 | 380 | –
14 | CC(C)C[C@H](NC(=O)[C@@H](NC(=O)[C@H](C)NC(=O)CCOCCOCCOCCOCCNc1cccc2c1C(=O)N(C1CCC(=O)NC1=O)C2=O)C(C)C)C(=O)N[C@H](C#N)C[C@@H]1CCNC1=O (some centres unmarked) [MP-42] | – | – | remaining activity at 0.5 µM [1, 3]: 70%; EC50 [2, 4]: 410 nM
15 | CC(C)C1CCN(C(=O)[C@@H](NC(=O)[C@H](C)NC(=O)CCOCCOCCOCCNc2cccc3c2C(=O)N(C2CCC(=O)NC2=O)C3=O)C(C)(C)C)C1C(=O)N[C@H](C#N)CC1CCNC1=O (some centres unmarked) [MP-C-4N] | – | – | concentration at which degradation of Mpro was detected ([1]; WB, cells treated 24 h, FIG. 55): 0.5 to 1.0 µM; concentration dependence of Mpro degradation activity ([1]; WB, FIG. 55): concentration-dependent
16 | CC(C)C[C@H](NC(=O)[C@@H](NC(=O)[C@H](C)NC(=O)CCOCCOCCNc1cccc2c1C(=O)N(C1CCC(=O)NC1=O)C2=O)C(C)C)C(=O)N[C@H](C#N)C[C@@H]1CCNC1=O (some centres unmarked) [MP-40] | – | – | Mpro (relative concentration) [1, 3]: 25%; EC50 ([2]; RD cells infected with HCoV-OC43, 33° C., 4-5 days, plaque areas, Tables 7-11): 225 nM
